Data taken from patent US20090318468A1, “PYRAZOLE COMPOUNDS 436” (AstraZeneca AB, priority 2008, published 2009).
Several values for one entry are separate records, joined by “and”; a condition that tells them apart may be missing. Equal entries are not always repeated. Where two headings read alike, the source gives them in different places.

How the values were obtained:
[1] = target: T1, human cytochrome P450 (CYP) 3A4 (Homo sapiens, UniProt P08684); experiment: Cytochrome P450 Inhibition Assay, CYP 3A4; type: in vitro ADME; settings: test compound 0.1-10 μM, substrate BFC
T1 construct: made in house; host or cells: yeast (microsomal fraction)
Protocol: (§1) Cytochrome P450 Inhibition Assay
The inhibitory potential (IC50) of test compounds against 5 human cytochrome P450 (CYP) isoforms (1A2, 2C9, 2C19, 3A4 and 2D6) was assessed using an automated fluorescent end point in vitro assay modified from Crespi (Crespi and Stresser, J Pharmacol Toxicol Methods 2000, 44: 325-331). Microsomal subcellular fractions prepared from Yeast cell lines expressing each human CYP isoform were used as an enzyme source in this assay. The activity of the 5 major human CYPs was determined from the biotransformation of a number of coumarin substrates to fluorescent metabolites, in the presence of NADPH. […] Stock solutions of each CYP, with its respective substrate, were prepared in phosphate buffer pH 7.4 (see Table 1) and 178 μl was added to the well of a black solid, flat bottom, 300 μl 96 well microtitre plate (Corning Costar). […] The appropriate solvent controls and substrate blanks were included in each experiment to assess control activity and identify any inherent fluorescence due to the test compounds. […] The plates were read on a fluorimeter (Spectrafluor Plus) at the appropriate excitation and emission wavelengths (listed in Table 2) and the percent activity, corrected for control, was plotted against the test compound concentration.

FGFR1 = FGFR1 (Homo sapiens, UniProt P11362); experiment: FGFR1 Kinase Assay - Caliper Echo Dosing; type: biochemical; settings: 408 uM ATP, separate test occasions listed, read-out: IC50 (inhibition of FGFR1 kinase activity)
Protocol: FGFR1 Kinase Assay—Caliper Echo Dosing
To determine inhibition of FGFR1 activity, kinase assays were conducted using Caliper technology.
Kinase activity assays were performed in Greiner 384-well low volume plates, with a total reaction volume of 12 ul per well. Final concentration of FGFR1 active kinase in each reaction well was 7.2 nM. The substrate for each assay was a custom peptide with fluorescent tag (13 amino acids in length, […] with the fluorescene tag on the first K).
Compounds were dispensed directly in to assay plates using a Labcyte Echo 550 acoustic droplet ejection unit. […]
Assay plates were incubated at room temperature for 1.5 h, before the reaction was stopped with the addition of buffer [comprising: 100 mM HEPES—pH 7.5, 0.033% Brij-35 (Sigma Catalogue No. B4184), 0.22% Caliper Coating Reagent #3 (Caliper Life Sciences Catalogue No. 760050), 88 mM EDTA, 5% DMSO]. Stopped assay plates were then read using the Caliper LabChip® LC3000 (which uses microfludics to measure a shift in mobility between fluorescent labelled peptide and the FGFR1 kinase—phosphorylated form of this peptide).
In the assay, compounds were tested at a range of concentrations. […] Percentage inhibition at 1 uM, as expressed herein, is a calculated value based on the curve fit that was generated experimentally. […] This value is calculated using a standard curve fitting software package Origin™. […]

[2] = Protein binding by equilibrium dialysis (rat); type: in vitro ADME; settings: 20 μM compound, 10% plasma, 37° C., read-out: % free (protein binding)
Protocol: (§2) Protein binding is determined by equilibrium dialysis. A 20 μM concentration of compound is dialyzed against 10% plasma at a temperature of 37° C. for 18 h. The resulting samples are analyzed using generic HPLC-UV methodology coupled with mass spectral peak identification. The reported K1 value is the first apparent association constant [proteináligand]/([protein][ligand]), all concentrations being measured in moles/liter (J. Med. Chem., 2006, 49(23), 6672-6682).
(§3) Protein binding can be measured in a high-throughput screen by equilibrium dialysis combined with liquid chromatography and mass spectrometry (Wan, H. and Rehngren, M., J. Chromatogr. A 2006, 1102, 125-134).

[3] = Protein binding by equilibrium dialysis (human); type: in vitro ADME; settings: 20 μM compound, 10% plasma, 37° C., read-out: % free (protein binding)
Protocol: as §2, §3

[4] = Clearance (pharmacokinetics) in dogs; type: in vivo; settings: dog, whole blood, dose 0.927 mg/kg (2 umol/kg); for Vd: read-out: Vss
Protocol: For the dog dose of 0.927 mg/kg (2 umol/kg), the compounds were formulated in 10% DMSO:90% hydroxyl-propyl-β-cyclodextrin (25% w/v) in sorensens buffer pH 5 at 2 umol/ml. Each formulation was dosed (1 mL/kg) to a male and female dog (8-15 kg) which had been fasted overnight. Blood samples were taken via the jugular vein at 5, 10, 20 and 40 minutes, and 1, 2, 4, 6, 12 and 24 hours post dose. The blood samples were diluted 1:1 with water prior to anaylsis.
A set of 10 calibration standards covering the concentration range (0.001 umol/L to 10 umol/L) were prepared by spiking blank matrix (1:1 blood:water). The samples and standards were extracted using a solid phase extraction plate, blown down under nitrogen, and then reconstituted in methanol:water (20:80). The samples were analysed using LC-MSMS and the results obtained were used to determine the area under the curve from time 0 to infinity [AUC0-inf (ug.hr/ml)], clearance [Cl (ml/min/kg)] and the steady state volume distribution [Vss (L/kg)] for each compound.

[5] = target: T2, human cytochrome P450 (CYP) 2C19 (Homo sapiens, UniProt P33261); experiment: Cytochrome P450 Inhibition Assay, CYP 2C19; type: in vitro ADME; settings: test compound 0.1-10 μM, substrate MFC; read-out: Ic50 2C19
T2 construct: made in house; host or cells: yeast (microsomal fraction)
Protocol: as §1
The inhibitory potential (IC50) of test compounds against 5 human cytochrome P450 (CYP) isoforms (1A2, 2C9, 2C19, 3A4 and 2D6) was assessed using an automated fluorescent end point in vitro assay modified from Crespi (Crespi and Stresser, J Pharmacol Toxicol Methods 2000, 44: 325-331). Microsomal subcellular fractions prepared from Yeast cell lines expressing each human CYP isoform were used as an enzyme source in this assay. The activity of the 5 major human CYPs was determined from the biotransformation of a number of coumarin substrates to fluorescent metabolites, in the presence of NADPH. […] Stock solutions of each CYP, with its respective substrate, were prepared in phosphate buffer pH 7.4 (see Table 1) and 178 μl was added to the well of a black solid, flat bottom, 300 μl 96 well microtitre plate (Corning Costar). […] After pre-incubating at 37° C. for 5 min the reactions were started with addition of NADPH (20 μl, concentration shown in Table 1). The final solvent content in each incubation was <=2% (1% from the test compound and a maximum of 1% from the substrate). The appropriate solvent controls and substrate blanks were included in each experiment to assess control activity and identify any inherent fluorescence due to the test compounds. In addition, known inhibitors of each CYP were included as positive controls (see Table 3 for inhibitor concentrations and expected IC50 ranges). The reactions were stopped at defined timepoints (see Table 1) by quenching with 100 μl of solvent (acetonitrile:0.5M Tris buffer 80:20 v/v). The plates were read on a fluorimeter (Spectrafluor Plus) at the appropriate excitation and emission wavelengths (listed in Table 2) and the percent activity, corrected for control, was plotted against the test compound concentration.

Sequence of FGFR1 (P11362 22-822): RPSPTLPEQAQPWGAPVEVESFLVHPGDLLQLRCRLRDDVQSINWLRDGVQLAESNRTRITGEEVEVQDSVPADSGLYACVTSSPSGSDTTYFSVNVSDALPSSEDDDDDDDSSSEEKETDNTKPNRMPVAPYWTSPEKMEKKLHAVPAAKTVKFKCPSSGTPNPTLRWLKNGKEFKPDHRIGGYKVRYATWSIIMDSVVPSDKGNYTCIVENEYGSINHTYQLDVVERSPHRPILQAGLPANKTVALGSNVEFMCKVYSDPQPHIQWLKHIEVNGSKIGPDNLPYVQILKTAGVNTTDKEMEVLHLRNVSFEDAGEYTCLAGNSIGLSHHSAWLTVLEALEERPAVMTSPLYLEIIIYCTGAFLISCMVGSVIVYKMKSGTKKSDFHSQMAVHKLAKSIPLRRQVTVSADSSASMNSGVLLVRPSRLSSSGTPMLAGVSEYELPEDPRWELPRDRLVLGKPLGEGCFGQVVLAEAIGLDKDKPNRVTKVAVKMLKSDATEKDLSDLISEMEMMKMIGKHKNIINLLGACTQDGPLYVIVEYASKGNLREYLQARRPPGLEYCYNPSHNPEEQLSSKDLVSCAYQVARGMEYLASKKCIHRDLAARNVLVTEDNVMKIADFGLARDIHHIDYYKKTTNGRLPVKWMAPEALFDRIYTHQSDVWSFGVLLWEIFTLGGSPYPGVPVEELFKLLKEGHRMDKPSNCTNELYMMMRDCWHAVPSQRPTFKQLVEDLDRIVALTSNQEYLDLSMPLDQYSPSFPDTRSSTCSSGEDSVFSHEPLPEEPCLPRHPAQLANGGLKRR
T2 sequence (P33261 whole entry): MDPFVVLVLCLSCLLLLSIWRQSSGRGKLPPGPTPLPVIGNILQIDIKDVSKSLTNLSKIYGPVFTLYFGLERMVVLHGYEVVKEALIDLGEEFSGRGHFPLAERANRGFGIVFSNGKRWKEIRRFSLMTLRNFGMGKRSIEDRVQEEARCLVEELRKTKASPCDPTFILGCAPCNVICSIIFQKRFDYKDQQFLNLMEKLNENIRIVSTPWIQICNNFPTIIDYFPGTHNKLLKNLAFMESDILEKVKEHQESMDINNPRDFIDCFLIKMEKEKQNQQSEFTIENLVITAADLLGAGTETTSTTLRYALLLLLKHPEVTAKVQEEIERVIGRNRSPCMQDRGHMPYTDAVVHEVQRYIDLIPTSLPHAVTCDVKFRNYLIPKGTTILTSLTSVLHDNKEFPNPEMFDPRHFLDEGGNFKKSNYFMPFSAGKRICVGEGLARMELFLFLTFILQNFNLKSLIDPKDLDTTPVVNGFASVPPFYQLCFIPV
T1 sequence (P08684 whole entry): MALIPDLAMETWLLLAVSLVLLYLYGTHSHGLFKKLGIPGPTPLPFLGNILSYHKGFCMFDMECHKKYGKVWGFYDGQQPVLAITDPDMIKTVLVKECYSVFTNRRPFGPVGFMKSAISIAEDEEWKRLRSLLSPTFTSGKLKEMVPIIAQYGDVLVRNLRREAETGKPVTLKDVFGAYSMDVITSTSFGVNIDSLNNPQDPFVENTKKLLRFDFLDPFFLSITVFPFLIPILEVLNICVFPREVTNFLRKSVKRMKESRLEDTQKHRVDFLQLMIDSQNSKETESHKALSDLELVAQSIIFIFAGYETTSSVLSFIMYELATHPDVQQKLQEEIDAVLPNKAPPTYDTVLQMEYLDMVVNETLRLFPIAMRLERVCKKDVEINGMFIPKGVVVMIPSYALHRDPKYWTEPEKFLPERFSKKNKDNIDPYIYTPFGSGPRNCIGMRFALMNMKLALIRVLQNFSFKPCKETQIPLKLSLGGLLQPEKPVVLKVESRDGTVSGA

Row | SMILES | IC50 [1] [nM] | IC50 (FGFR1) | fraction unbound at 18 h, 20 μM [2] | fraction unbound at 18 h, 20 μM [3] | AUC(0-inf) ([4]; female dogs) [ng·h/mL] | clearance ([4]; female dogs) [mL/min/kg] | Vd ([4]; female dogs) [L/kg] | AUC(0-inf) ([4]; male dogs) [ng·h/mL] | clearance ([4]; male dogs) [mL/min/kg] | Vd ([4]; male dogs) [L/kg] | IC50 [5] [nM]
1 | COc1cc(CCc2cc(NC(=O)c3ccc(N4CCN(C)[C@@H](C)C4)cc3)[nH]n2)cc(OC)c1 [Example 1a, (S)—N-(3-(3,5-Dimethoxyphenethyl)-1H-pyrazol-5-yl)-4-(3,4-dimethylpiperazin-1-yl)benzamide] | 2940 | 0.74 nM | 0.0091 | 0.0372 | 427 | 36.2 | 7.08 | 585 | 26.4 | 3.71 | > 10000
2 | COc1cc(CCc2cc(NC(=O)c3ccc(N4CCN(C)[C@H](C)C4)cc3)[nH]n2)cc(OC)c1 [Example 1b, (R)—N-(3-(3,5-Dimethoxyphenethyl)-1H-pyrazol-5-yl)-4-(3,4-dimethylpiperazin-1-yl)benzamide] | > 10000 | 1.1 nM and 0.64 nM and 0.76 nM | 0.0062 | 0.0279 | 1350 | 11.5 | 1.71 | 1240 | 12.5 | 6.55 | 8010
